Active and inactive are the calls of the source. The rule behind the calls is not given here.
Columns and labels:
[1] = target: T1, WD repeat-containing protein 91 (Homo sapiens, UniProt A4D1P6); assay: (§1) Binding affinity to C-terminal His6-tagged truncated WDR91 (unknown origin) (P392 to A747 residues) expressed in baculovirus-infected Sf9 cells assessed as dissociation constant incubated for 72 to 96 hrs by SPR analysis
T1 sequence (A4D1P6 whole entry): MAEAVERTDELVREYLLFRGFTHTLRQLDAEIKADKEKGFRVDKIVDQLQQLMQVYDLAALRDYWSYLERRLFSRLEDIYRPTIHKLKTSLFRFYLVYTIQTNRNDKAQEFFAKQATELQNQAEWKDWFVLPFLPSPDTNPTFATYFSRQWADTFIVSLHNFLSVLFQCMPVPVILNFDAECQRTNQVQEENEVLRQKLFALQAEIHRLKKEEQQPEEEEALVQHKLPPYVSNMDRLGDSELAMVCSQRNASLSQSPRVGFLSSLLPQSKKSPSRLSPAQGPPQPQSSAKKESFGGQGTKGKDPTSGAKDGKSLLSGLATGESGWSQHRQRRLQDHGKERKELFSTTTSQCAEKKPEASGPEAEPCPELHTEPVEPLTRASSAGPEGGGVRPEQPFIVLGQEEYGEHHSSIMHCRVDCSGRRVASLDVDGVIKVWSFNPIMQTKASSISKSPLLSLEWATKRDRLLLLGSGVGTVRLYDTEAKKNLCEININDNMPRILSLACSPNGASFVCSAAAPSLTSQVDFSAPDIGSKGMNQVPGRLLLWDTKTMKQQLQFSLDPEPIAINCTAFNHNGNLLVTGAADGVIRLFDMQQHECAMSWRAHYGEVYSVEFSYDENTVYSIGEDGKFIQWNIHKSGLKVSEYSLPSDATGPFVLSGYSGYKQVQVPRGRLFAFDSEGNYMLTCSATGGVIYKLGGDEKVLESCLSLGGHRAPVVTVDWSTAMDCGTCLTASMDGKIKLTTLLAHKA

[2] = target: T2, WD repeat-containing protein 91 (Homo sapiens) (UniProt A4D1P6); assay: Binding affinity to C-terminal His6-tagged truncated WDR91 (unknown origin) (P392 to A747 residues) expressed in baculovirus-infected Sf9 cells assessed as covalent adduct formation incubated for 2 hrs by LC-MS analysis
T2 sequence (whole entry): T1 sequence (A4D1P6 whole entry)

[3] = target: T2, WD repeat-containing protein 91 (Homo sapiens); assay: Binding affinity to C-terminal His6-tagged truncated WDR91 (unknown origin) (P392 to A747 residues) expressed in baculovirus-infected Sf9 cells assessed as maximum response incubated for 2 hrs relative to control
[4] = target: T2, WD repeat-containing protein 91 (Homo sapiens); assay: Binding affinity to C-terminal His6-tagged truncated WDR91 (unknown origin) (P392 to A747 residues) expressed in baculovirus-infected Sf9 cells assessed as thermal stabilization by measuring change in melting temperature incubated for 2 hrs by differential scanning fluorimetry analysis
[5] = target: T2, WD repeat-containing protein 91 (Homo sapiens); assay: as §1; details: time 72-96 hrs

Kd [1]	further results	SMILES
99 µM	–	O=C(NC(CCO)c1ccc(Cl)cc1)c1ccc(CN2CCCC2=O)cc1 (stereo not drawn)
14 µM	–	NC(=O)C1CCCN(c2ccc(C(=O)NC(CCO)c3ccc(Cl)cc3)cc2)C1 (stereo not drawn)
97 µM	–	CC(=O)NCc1ccc(C(=O)NC2(c3ccc(Cl)cc3)COC2)cc1
16 µM	–	O=C(c1ccc(N2CCC(O)C2)cc1)N1CC(O)(c2ccc(Cl)cc2)C1 (stereo not drawn)
43 µM	Activity [2]: Active; Rmax [3]: 54%; ΔTm [4]: 4 °C	C=CC(=O)N1CCCc2c(C(=O)NC(c3ccc(Cl)cc3)C3CC3)cccc21 (stereo not drawn)
42 µM	–	Nc1ncnc2ccc(C(=O)NC3(c4ccc(Cl)cc4)COC3)cc12
11 µM	–	O=C(NC1(c2ccc(Cl)cc2)COC1)c1ccc(CN2CCCC2=O)cc1
6 µM	–	O=C(NC1(c2ccc(Cl)cc2)COC1)c1ccc(N2CCC(O)CC2)cc1
–	Activity [5]: inactive; Activity [2]: inactive; Rmax [3]: inactive	C=CC(=O)N1CCCc2c(C(=O)NC(c3ccc(F)cc3)C3CCCCC3)cccc21 (stereo not drawn)
15 µM	–	O=C(NC(CCO)c1ccc(Cl)cc1)c1ccc(N2CCC(O)C2)cc1 (stereo not drawn)
–	Activity [5]: inactive; Activity [2]: inactive; Rmax [3]: inactive	C=CC(=O)Nc1ccc(CC(=O)NC2(c3ccccc3)COC2)cc1
36 µM	Activity [2]: Active; Rmax [3]: 53%; ΔTm [4]: 4 °C	C=CC(=O)N1CCCc2c(C(=O)NC3(c4ccc(Cl)cc4)COC3)cccc21
11 µM	–	Cc1cn2cc(C(=O)NC3(c4ccc(Cl)cc4)COC3)sc2n1
8 µM	–	O=C(NC1(c2ccc(Cl)cc2)COC1)c1ccc(-c2cc[nH]n2)s1
37 µM	–	NC(=O)C1CCCN(c2ccc(C(=O)NC(c3ccc(Cl)cc3)C3CC3)cc2)C1 (stereo not drawn)
20 µM	–	O=C(NC1(c2ccc(Cl)cc2)COC1)c1ccc(C2(O)COC2)cc1
22 µM	–	O=C1Cc2c(cccc2C(=O)NC2(c3ccc(Cl)cc3)COC2)N1
14 µM	–	O=C(NC1(c2ccc(Cl)cc2)COC1)c1ccc2snnc2c1

Reference: ChEMBL document CHEMBL5375963, “Discovery of a First-in-Class Small-Molecule Ligand for WDR91 Using DNA-Encoded Chemical Library Selection Followed by Machine Learning” (J Med Chem, 2023)
